Target: T1, Phosphatidylinositol 4,5-bisphosphate 3-kinase catalytic subunit delta isoform (Homo sapiens, UniProt O00329)
T1 sequence (O00329 whole entry): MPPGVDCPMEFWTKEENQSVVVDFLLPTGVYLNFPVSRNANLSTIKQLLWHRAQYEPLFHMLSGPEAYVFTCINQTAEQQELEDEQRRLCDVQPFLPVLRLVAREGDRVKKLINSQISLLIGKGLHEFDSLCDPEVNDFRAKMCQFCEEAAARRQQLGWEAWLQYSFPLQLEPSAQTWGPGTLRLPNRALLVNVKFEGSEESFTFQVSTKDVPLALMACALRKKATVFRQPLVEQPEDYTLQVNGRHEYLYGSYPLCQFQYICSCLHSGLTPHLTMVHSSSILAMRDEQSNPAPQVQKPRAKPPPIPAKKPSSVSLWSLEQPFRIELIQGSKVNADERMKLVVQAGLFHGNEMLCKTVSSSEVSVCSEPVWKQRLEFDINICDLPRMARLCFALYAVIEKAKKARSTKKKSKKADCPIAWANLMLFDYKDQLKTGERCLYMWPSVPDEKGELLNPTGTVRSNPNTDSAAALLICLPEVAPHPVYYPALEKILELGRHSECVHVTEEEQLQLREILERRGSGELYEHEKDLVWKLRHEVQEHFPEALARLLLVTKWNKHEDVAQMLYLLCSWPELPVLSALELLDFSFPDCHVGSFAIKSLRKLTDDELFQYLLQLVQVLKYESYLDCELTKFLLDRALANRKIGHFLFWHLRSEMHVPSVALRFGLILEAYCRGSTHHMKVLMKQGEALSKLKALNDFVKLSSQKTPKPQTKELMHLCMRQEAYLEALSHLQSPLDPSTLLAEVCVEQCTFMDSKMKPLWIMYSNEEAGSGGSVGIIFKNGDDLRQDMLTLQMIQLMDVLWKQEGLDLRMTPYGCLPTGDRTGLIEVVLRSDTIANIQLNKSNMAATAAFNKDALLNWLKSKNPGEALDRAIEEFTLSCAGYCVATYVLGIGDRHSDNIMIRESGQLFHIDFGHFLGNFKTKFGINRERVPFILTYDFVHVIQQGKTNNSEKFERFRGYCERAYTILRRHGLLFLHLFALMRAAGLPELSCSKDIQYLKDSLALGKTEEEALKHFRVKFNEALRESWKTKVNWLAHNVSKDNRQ
Assay: PI3Kdelta Scintillation Proximity A3 Assay
Protocol: [γ-33P]ATP (10 mCi/mL) was purchased from Perkin-Elmer (Waltham, Mass.). […] PI3Kδ (p110δ/p85α) was purchased from Millipore (Bedford, Mass.). ATP, MgCl2, DTT, EDTA, MOPS and CHAPS were purchased from Sigma-Aldrich (St. Louis, Mo.). Wheat Germ Agglutinin (WGA) YSi SPA Scintillation Beads was purchased from GE healthcare life sciences (Piscataway, N.J.).The kinase reaction was conducted in polystyrene 384-well matrix white plate from Thermo Fisher Scientific in a final volume of 25 μL. Inhibitors were first diluted serially in DMSO and added to the plate wells before the addition of other reaction components. The final concentration of DMSO in the assay was 0.5%. The PI3K assays were carried out at room temperature in 20 mM MOPS, pH 6.7, 10 mM MgCl2, 5 mM DTT and CHAPS 0.03%. Reactions were initiated by the addition of ATP, the final reaction mixture consisted of 20 μM PIP2, 20 μM ATP, 0.2 μCi [γ-33P] ATP, 4 nM PI3Kδ. […] 25 mM EDTA, 400 μM ATP. The final concentration of SPA beads was 1.0 mg/mL. After the plate sealing, plates were shaken overnight at room temperature and centrifuged at 1800 rpm for 10 minutes, the radioactivity of the product was determined by scintillation counting on Topcount (Perkin-Elmer). IC50 determination was performed by fitting the curve of percent control activity versus the log of the inhibitor concentration using the GraphPad Prism 3.0 software.

IC50: < 10 nM
Compound: COc1c(C(C)n2nc(C3C=NNC3)c3c(N)ncnc32)cc(Cl)c(C)c1C1CN(CC#N)C1 (stereo unspecified) [US10376513, Example 126]

Reference: BindingDB's records for patent US10376513 (Incyte Holdings Corporation, 2019)
